The numbers were not newly measured in article PMC4627231, “Targeting the sugar metabolism of tumors with a first-in-class 6-phosphofructo-2-kinase (PFKFB4) inhibitor” (Oncotarget, 2015), which cites them from elsewhere.

Molecules are shown by their SMILES.

For this data set, the system named is breast cancer patients. Details: method as in PMID 25524798. Conditions: cited from earlier work.

For the molecule `CC(=O)c1c(C)c2cnc(Nc3ccc(N4CCNCC4)cn3)nc2n(C2CCCC2)c1=O` [palbociclib], the progression-free survival entry is recorded as “double” and the toxicity entry is “without causing excessive toxicity”.
